Reference: ChEMBL document CHEMBL1201862, “PubChem BioAssay data set” (2004)
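All cell lines were grown in 96-well plates and treated with compound for 48 hours. GI50 marks 50% less growth.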 The source made the active and inactive calls. Cut-off read from the data, not from the text of the source: active = GI50 up to about 1.1 µM and inactive = higher. Where a SMILES comes first, the peptide text is derived from it. The star is where a group is joined. Cbz = O=C(OCc1ccccc1)*

Key:
Test in all cases: growth of human tumour cells (NCI), 48 h
SW-620 = test system: SW-620
UACC-257 = test system: UACC-257
NCI-H226 = test system: NCI-H226
SK-MEL-2 = test system: SK-MEL-2
EKVX = test system: EKVX
SK-MEL-5 = test system: SK-MEL-5
HOP-62 = test system: HOP-62
OVCAR-8 = test system: OVCAR-8
HCT-116 = test system: HCT-116
SNB-19 = test system: SNB-19
DMS-114 = test system: DMS-114
ACHN = test system: ACHN
BT-549 = test system: BT-549
MDA-MB-231 = test system: MDA-MB-231
NCI/ADR-RES = test system: NCI/ADR-RES
PC-3 = test system: PC-3
MDA-MB-435 = test system: MDA-MB-435
IGROV-1 = test system: IGROV-1
T47D = test system: T47D
HOP-92 = test system: HOP-92

Structure (SMILES) | GI50 (SW-620) | GI50 (UACC-257) | GI50 (NCI-H226) | GI50 (SK-MEL-2) | GI50 (EKVX) | GI50 (SK-MEL-5) | GI50 (HOP-62) | GI50 (OVCAR-8) | GI50 (HCT-116) | GI50 (SNB-19) | GI50 (DMS-114) | GI50 (ACHN) | GI50 (BT-549) | GI50 (MDA-MB-231) | GI50 (NCI/ADR-RES) | GI50 (PC-3) | GI50 (MDA-MB-435) | GI50 (IGROV-1) | GI50 (T47D) | GI50 (HOP-92)
O=C(CSc1nnc(-c2ccc(/N=C\c3ccc(Cl)cc3)cc2)o1)Nc1cccc([N+](=O)[O-])c1 | > 100 µM (inactive) | > 100 µM (inactive) | > 100 µM (inactive) | > 100 µM (inactive) | > 100 µM (inactive) | > 100 µM (inactive) | > 100 µM (inactive) | > 100 µM (inactive) | > 100 µM (inactive) | > 100 µM (inactive) | > 100 µM (inactive) | > 100 µM (inactive) | – | – | – | – | – | – | – | –
CC(C)(C)C1CCC2c3c([nH]c4ccccc34)C3C(=O)N(c4ccc([N+](=O)[O-])cc4)C(=O)C3C2C1 (configuration not stated) | 21 µM (inactive) | 29.1 µM (inactive) | 13.9 µM (inactive) | 11.8 µM (inactive) | 25.3 µM (inactive) | 12.2 µM (inactive) | 16.4 µM (inactive) | 19 µM (inactive) | 8.09 µM (inactive) | 22 µM (inactive) | – | 36.6 µM (inactive) | 16.2 µM (inactive) | 17.8 µM (inactive) | 14.9 µM (inactive) | 26.9 µM (inactive) | 28.1 µM (inactive) | 11.5 µM (inactive) | 13.9 µM (inactive) | 2.7 µM (inactive)
Nc1ccc(C(=O)CC(N)C(=O)O)cc1O (configuration not stated) | > 100 µM (inactive) | > 100 µM (inactive) | > 100 µM (inactive) | > 100 µM (inactive) | > 100 µM (inactive) | > 100 µM (inactive) | > 100 µM (inactive) | > 100 µM (inactive) | > 100 µM (inactive) | > 100 µM (inactive) | – | > 100 µM (inactive) | > 100 µM (inactive) | > 100 µM (inactive) | > 100 µM (inactive) | > 100 µM (inactive) | > 100 µM (inactive) | > 100 µM (inactive) | > 100 µM (inactive) | > 100 µM (inactive)
Cc1ccc(S(=O)(=O)Oc2coc(CO)cc2=O)cc1 | 12.3 µM (inactive) | 15.3 µM (inactive) | 33.1 µM (inactive) | 20.3 µM (inactive) | 15.3 µM (inactive) | 13.5 µM (inactive) | 14.7 µM (inactive) | 17.6 µM (inactive) | 4.25 µM (inactive) | 14.6 µM (inactive) | – | 18 µM (inactive) | 13.8 µM (inactive) | 18.6 µM (inactive) | 22.8 µM (inactive) | 15.1 µM (inactive) | 6.85 µM (inactive) | 9.29 µM (inactive) | 13.3 µM (inactive) | 16 µM (inactive)
CCOc1ccc2nc3nc(O)nc(C)c3c(NCCCN(CC)CC)c2c1 | > 100 µM (inactive) | > 100 µM (inactive) | > 100 µM (inactive) | > 100 µM (inactive) | > 100 µM (inactive) | > 100 µM (inactive) | > 100 µM (inactive) | > 100 µM (inactive) | > 100 µM (inactive) | > 100 µM (inactive) | – | > 100 µM (inactive) | > 100 µM (inactive) | > 100 µM (inactive) | > 100 µM (inactive) | > 100 µM (inactive) | > 100 µM (inactive) | > 100 µM (inactive) | > 100 µM (inactive) | > 100 µM (inactive)
CN(/N=C/c1ccccc1O)c1ccc2ccccc2n1 | 42.3 µM (inactive) | 52.8 µM (inactive) | 78 µM (inactive) | 35.6 µM (inactive) | 19.8 µM (inactive) | 32.5 µM (inactive) | 16.4 µM (inactive) | 33.8 µM (inactive) | 48.3 µM (inactive) | 16.7 µM (inactive) | – | 25.4 µM (inactive) | 23.6 µM (inactive) | 29.8 µM (inactive) | 22.4 µM (inactive) | 17.5 µM (inactive) | 44.4 µM (inactive) | 11.3 µM (inactive) | 13.5 µM (inactive) | 35.3 µM (inactive)
CCc1c(C#N)c(=O)[nH]c(=O)n1CCN1CCN(C(=O)NCCCCCCNC(=O)N2CCN(CCn3c(CC)c(C#N)c(=O)[nH]c3=O)CC2)CC1 | > 100 µM (inactive) | > 100 µM (inactive) | – | – | > 100 µM (inactive) | > 100 µM (inactive) | > 100 µM (inactive) | > 100 µM (inactive) | > 100 µM (inactive) | > 100 µM (inactive) | > 100 µM (inactive) | > 100 µM (inactive) | – | – | – | – | – | > 100 µM (inactive) | – | –
CN(C)C(=S)Nc1nnc(NC23CC4CC(CC(C4)C2)C3)s1.[O-][Cl+3]([O-])([O-])O | 16.7 µM (inactive) | 14.5 µM (inactive) | 19.4 µM (inactive) | 18.5 µM (inactive) | 23 µM (inactive) | 0.1 µM (active) | 18.6 µM (inactive) | 26.7 µM (inactive) | 13.3 µM (inactive) | 18.3 µM (inactive) | 19.4 µM (inactive) | 21.8 µM (inactive) | – | – | – | – | – | 30.1 µM (inactive) | – | –
COc1ccc2c(c1)CN([C@@H](C)[C@H]1CC[C@H]3[C@@H]4CC[C@H]5C[C@@H](O)CC[C@]5(C)[C@H]4CC[C@]13C)CO2 | 2.92 µM (inactive) | 2.2 µM (inactive) | 7.36 µM (inactive) | 1.96 µM (inactive) | 3.36 µM (inactive) | 1.69 µM (inactive) | 2 µM (inactive) | 2.71 µM (inactive) | 2.17 µM (inactive) | 1.96 µM (inactive) | – | 3.21 µM (inactive) | 3.38 µM (inactive) | 2.42 µM (inactive) | 3.37 µM (inactive) | 2.44 µM (inactive) | 1.75 µM (inactive) | 3.95 µM (inactive) | 3.56 µM (inactive) | 1.74 µM (inactive)
CC1=NN(C(=O)CC(=O)Nc2cccc(Cl)c2)C(=O)C1/N=N\c1ccc(S(=O)(=O)c2ccc(/N=N/C3C(=O)N(C(=O)CC(=O)Nc4cccc(Cl)c4)N=C3C)cc2)cc1 (configuration not stated) | > 100 µM (inactive) | > 100 µM (inactive) | > 100 µM (inactive) | > 100 µM (inactive) | > 100 µM (inactive) | 40.8 µM (inactive) | > 100 µM (inactive) | > 100 µM (inactive) | > 100 µM (inactive) | > 100 µM (inactive) | – | > 100 µM (inactive) | > 100 µM (inactive) | 16.1 µM (inactive) | > 100 µM (inactive) | > 100 µM (inactive) | > 100 µM (inactive) | > 100 µM (inactive) | > 100 µM (inactive) | > 100 µM (inactive)
O=C(CSc1nnc(-c2ccc(/N=C\c3ccc(Cl)cc3)cc2)o1)Nc1ccc([N+](=O)[O-])cc1 | 17.1 µM (inactive) | 21.5 µM (inactive) | 21.9 µM (inactive) | 25.4 µM (inactive) | > 100 µM (inactive) | 18.4 µM (inactive) | 32.1 µM (inactive) | 37.6 µM (inactive) | 2.58 µM (inactive) | 16.6 µM (inactive) | 16.2 µM (inactive) | 11.9 µM (inactive) | – | – | – | – | – | – | – | –
c1cncc(C2(c3cc4ccccc4[nH]3)COCO2)c1 (configuration not stated) | > 100 µM (inactive) | > 100 µM (inactive) | > 100 µM (inactive) | > 100 µM (inactive) | > 100 µM (inactive) | 38.2 µM (inactive) | > 100 µM (inactive) | > 100 µM (inactive) | 71 µM (inactive) | > 100 µM (inactive) | – | 77.3 µM (inactive) | > 100 µM (inactive) | > 100 µM (inactive) | > 100 µM (inactive) | 94.2 µM (inactive) | > 100 µM (inactive) | > 100 µM (inactive) | > 100 µM (inactive) | > 100 µM (inactive)
COc1cccc(N2C(=O)/C(=C/c3ccc(N(CCC#N)CCC#N)cc3)N=C2c2cc([N+](=O)[O-])ccc2Cl)c1 | 33.2 µM (inactive) | > 100 µM (inactive) | > 100 µM (inactive) | > 100 µM (inactive) | – | 84.9 µM (inactive) | 50.9 µM (inactive) | 78.7 µM (inactive) | – | > 100 µM (inactive) | > 100 µM (inactive) | 44 µM (inactive) | – | – | – | – | – | 50.7 µM (inactive) | – | –
CCOC(=O)/C(=C\c1ccc(CO)o1)P(=O)(OCC)OCC | 27.4 µM (inactive) | 44.6 µM (inactive) | > 100 µM (inactive) | 25.2 µM (inactive) | > 100 µM (inactive) | > 100 µM (inactive) | 45.8 µM (inactive) | > 10 µM (inactive) | 24.4 µM (inactive) | 63.2 µM (inactive) | – | 61.1 µM (inactive) | 20.1 µM (inactive) | 31.7 µM (inactive) | 22.2 µM (inactive) | 5.43 µM (inactive) | 29 µM (inactive) | 37.2 µM (inactive) | 91.2 µM (inactive) | 23.7 µM (inactive)
COC(=O)CCC12CCC(=O)C1[C@@H](C(=O)OC)C[C@H]2C(=O)OC (some centres not stated) | > 100 µM (inactive) | > 100 µM (inactive) | > 100 µM (inactive) | > 100 µM (inactive) | > 100 µM (inactive) | > 100 µM (inactive) | > 100 µM (inactive) | > 100 µM (inactive) | > 100 µM (inactive) | > 100 µM (inactive) | > 100 µM (inactive) | > 100 µM (inactive) | – | – | – | – | – | > 100 µM (inactive) | – | –
CCOC(=O)CCC(NC(=O)C(Cc1ccccc1)NC(=O)OCc1ccccc1)C(=O)OCC (stereo not drawn) (Cbz-Phe-Glu(OEt)-OEt; configuration not given here) | 18.2 µM (inactive) | 16.9 µM (inactive) | 16.6 µM (inactive) | 22.3 µM (inactive) | 20.4 µM (inactive) | 15.5 µM (inactive) | 18.5 µM (inactive) | 19.5 µM (inactive) | 18 µM (inactive) | 19.7 µM (inactive) | – | 17.4 µM (inactive) | > 100 µM (inactive) | 14.9 µM (inactive) | 18.2 µM (inactive) | 18.2 µM (inactive) | 18.3 µM (inactive) | 18.1 µM (inactive) | 16.2 µM (inactive) | 18.5 µM (inactive)
